Assay results taken from patent US20040248887A1, “Inhibitors of cathepsin S” (IRM LLC, priority 2003, published 2004).

biological target: Cathepsin S (Homo sapiens, UniProt P25774); test: Cathepsin S inhibition, fluorogenic peptide substrate kinetic assay; assay type: biochemical; settings: Table II; Cathepsin S inhibition constant, pH5.5; read-out: Ki Cat. S
Summary of the method: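 Reactions were started with 50 μM (final) acetyl-His-Pro-Val-Lys-aminocarbamoylcoumarin, and hydrolysis was followed by fluorescence (ex 380/em 450 nm). Apparent inhibition constants from enzyme progress curves were converted to Ki for competitive inhibitors using substrate concentration and Km.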

Cathepsin S, sequence (P25774 115-331, species assumed): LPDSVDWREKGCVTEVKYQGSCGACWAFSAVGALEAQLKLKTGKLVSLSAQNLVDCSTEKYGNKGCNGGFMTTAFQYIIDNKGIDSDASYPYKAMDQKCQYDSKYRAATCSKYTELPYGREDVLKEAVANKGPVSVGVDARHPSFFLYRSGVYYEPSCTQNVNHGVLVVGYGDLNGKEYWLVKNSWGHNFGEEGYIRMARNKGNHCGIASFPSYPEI

Row | SMILES | Ki
1 | Cc1cc(NC[C@H](C)NC(=O)[C@H](CC2CCCCC2)NC(=O)c2ccc(-c3cccc(F)c3)o2)on1 [Compound 247, 5-(3-Fluoro-phenyl)-furan-2-carboxylic acid {2-cyclohexyl-1-(S)-[1-(S)-methyl-2-(3-methyl-isoxazol-5-ylamino)-ethylcarbamoyl]-ethyl}-amide] | < 1000 nM
2 | COc1cccc(C(=O)N[C@@H](CCC2CCCCC2)C(=O)NCCN2CCc3cccc(OC)c32)c1 [Compound 8, (S)-N-{3-Cyclohexyl-1-[2-(7-methoxy-2,3-dihydro-indol-1-yl)-ethylcarbamoyl]-propyl}-3-methoxy-benzamide] | < 10000 nM
3 | O=C(N[C@@H](CC1CCCCC1)C(=O)N[C@@H](COCc1ccccc1)CN1CCc2cc(F)ccc21)OCc1ccccc1 [Compound 169] | < 100 nM
4 | Cc1cccc(C(=O)N[C@@H](Cc2ccc(Cl)cc2)C(=O)NCCN2CCc3cc(F)ccc32)c1 [Compound 199, N-((S)-1-(2-(5-fluoroindolin-1-yl)ethylcarbamoyl)-2-(4-chlorophenyl)ethyl)-3-methylbenzamide] | < 100 nM
5 | C[C@@H](CNc1ccc(OC(F)(F)F)cc1)NC(=O)[C@H](CC1CCCCC1)NC(=O)c1nc(-c2cccc(F)c2)no1 [Compound 108, 3-(3-Fluoro-phenyl)-[1,2,4]oxadiazole-5-carboxylic acid {2-cyclohexyl-1-(S)-[1-(S)-methyl-2-(4-trifluoromethoxy-phenylamino)-ethylcarbamoyl]-ethyl}-amide] | < 100 nM
6 | C[C@@H](CNc1ccc(OC(F)(F)F)cc1)NC(=O)[C@H](CC(C)(C)C)NC(=O)C1CCOCC1 [Compound 269, Tetrahydropyran-4-carboxylic acid {3,3-dimethyl-1-(S)-[1-(S)-methyl-2-(4-trifluoromethoxy-phenylamino)-ethylcarbamoyl]-butyl}-amide] | < 1000 nM
7 | C[C@@H](CNc1cccc(S(C)(=O)=O)c1)NC(=O)[C@H](CC1CCCCC1)NC(=O)c1ccc(-c2ccc(F)cc2)o1 [Compound 106, 5-(4-Fluoro-phenyl)-furan-2-carboxylic acid {2-cyclohexyl-1-(S)-[2-(3-methanesulfonyl-phenylamino)-1-(S)-methyl-ethylcarbamoyl]-ethyl}-amide] | < 100 nM
8 | COc1cccc(C(=O)N[C@@H](CCC2CCCCC2)C(=O)NCCN2CCc3cccc(F)c32)c1 [Compound 11, (S)-N-{3-Cyclohexyl-1-[2-(7-fluoro-2,3-dihydro-indol-1-yl)-ethylcarbamoyl]-propyl}-3-methoxy-benzamide] | < 10000 nM

Next, values leading:

Row | Ki | SMILES
9 | < 100 nM | C[C@@H](CN1c2ccc(F)cc2CC1(C)C)NC(=O)[C@H](CC1CCCCC1)NC(=O)C1CCOC1 (stereo partly drawn) [Compound 140, Tetrahydrofuran-3-carboxylic acid {2-cyclohexyl-1-(S)-[2-(5-fluoro-2,2-dimethyl-2,3-dihydro-indol-1-yl)-1-(S)-methyl-ethylcarbamoyl]-ethyl}-amide]
10 | < 100 nM | C[C@@H](CNc1c(F)cccc1F)NC(=O)[C@H](CC1CCCCC1)NC(=O)c1ccc(-c2cccc(F)c2)o1 [Compound 92, 5-(3-Fluoro-phenyl)-furan-2-carboxylic acid {2-cyclohexyl-1-(S)-[2-(2,6-difluoro-phenylamino)-1-(S)-methyl-ethylcarbamoyl]-ethyl}-amide]
11 | < 100 nM | O=C(N[C@@H](CC1CCCCC1)C(=O)NCCN1CCc2cc(F)ccc21)c1ccco1 [Compound 9, Furan-2-carboxylic acid (S)-{2-cyclohexyl-1-[2-(5-fluoro-2,3-dihydro-indol-1-yl)-ethylcarbamoyl]-ethyl}-amide]
12 | < 100 nM | C[C@@H](CNc1ccc(SC(F)(F)F)cc1)NC(=O)[C@H](CC1CCCCC1)NC(=O)c1ccc(-c2cccc(F)c2)o1 [Compound 119, 5-(3-Fluoro-phenyl)-furan-2-carboxylic acid {2-cyclohexyl-1-(S)-[1-(S)-methyl-2-(4-trifluoromethylsulfanyl-phenylamino)-ethylcarbamoyl]-ethyl}-amide]
